Organism: Rattus norvegicus
Assay: Open TG-GATES - Regimen: Daily Repeat
Assay type: toxicity, organism-based, Sprague-Dawley
Set-up: regimen Daily Repeat, gender Male, age 6 weeks
Conditions: in vivo, po, 500 mg/kg, route gavage, dose level High; for APTT / Bas / Eos / Fbg / Hb / Ht / Lym / MCH / MCHC / MCV / Mono / Neu / PT / Plat / RBC / Ret / WBC: tissue Blood
[1] = 72 h, tissue Kidney, time 3 day
[2] = 72 h, tissue Plasma, time 3 day

CN1C(=O)OC(C)(C)C1=O [TRIMETHADIONE]
TERMINAL_BW (72 h, time 3 day): 231.2 g
APTT (72 h, time 3 day): 19.5 s
Bas (72 h, time 3 day): 0.2%
Eos (72 h, time 3 day): 0.6%
Fbg (72 h, time 3 day): 280 mg/dL
Hb (72 h, time 3 day): 13.7 g/dL
Ht (72 h, time 3 day): 40.3%
Lym (72 h, time 3 day): 80%
MCH (72 h, time 3 day): 21.4 pg
MCHC (72 h, time 3 day): 34%
MCV (72 h, time 3 day): 63 fL
Mono (72 h, time 3 day): 3.2%
Neu (72 h, time 3 day): 15.6%
PT (72 h, time 3 day): 13.3 s
Plat (72 h, time 3 day): 127.8 x10_4/uL
RBC (72 h, time 3 day): 640 x10_4/ul
Ret (72 h, time 3 day): 5.1%
WBC (72 h, time 3 day): 107.7 x10_2/uL
KIDNEY_L [1]: 1.1 g
KIDNEY_R [1]: 1 g
KIDNEY_TOTAL [1]: 2.1 g
LIVER (72 h, tissue Liver, time 3 day): 13.3 g
A/G [2]: 0.8
ALP [2]: 1686.2 IU/L
ALT [2]: 57.2 IU/L
AST [2]: 106.6 IU/L
BUN [2]: 16 mg/dL
CRE [2]: 0.2 mg/dL
Ca [2]: 11.2 mg/dL
Cl [2]: 99.4 meq/L
DBIL [2]: 0.006 mg/dL
GLC [2]: 169.4 mg/dL
IP [2]: 7.7 mg/dL
K [2]: 4.5 meq/L
LDH [2]: 114.8 IU/L
Na [2]: 143 meq/L
PL [2]: 160 mg/dL
RALB [2]: 2.7 g/dL
TBIL [2]: 0.04 mg/dL
TC [2]: 88.4 mg/dL
TG [2]: 70.6 mg/dL
TP [2]: 5.8 g/dL
gamma-GTP [2]: 1 IU/L
TERMINAL_BW ([…], time 7 day): 268.1 g
TERMINAL_BW ([…], time 14 day): 306.3 g
TERMINAL_BW ([…], time 28 day): 346.7 g
APTT ([…], time 7 day): 15.5 s
Bas ([…], time 7 day): 0.6%
Eos ([…], time 7 day): 0.8%
Fbg ([…], time 7 day): 272.6 mg/dL
Hb ([…], time 7 day): 13.4 g/dL
Ht ([…], time 7 day): 39%
Lym ([…], time 7 day): 70.4%
MCH ([…], time 7 day): 21.2 pg
MCHC ([…], time 7 day): 34.4%
MCV ([…], time 7 day): 61.8 fL
Mono ([…], time 7 day): 4.2%
Neu ([…], time 7 day): 24%
PT ([…], time 7 day): 14.8 s
Plat ([…], time 7 day): 109.8 x10_4/uL
RBC ([…], time 7 day): 630.8 x10_4/ul
Ret ([…], time 7 day): 4.4%
WBC ([…], time 7 day): 138.4 x10_2/uL
APTT ([…], time 14 day): 33.5 s
Bas ([…], time 14 day): 0.2%
Eos ([…], time 14 day): 0.4%
Fbg ([…], time 14 day): 282.6 mg/dL
Hb ([…], time 14 day): 14 g/dL
Ht ([…], time 14 day): 40.3%
Lym ([…], time 14 day): 77.2%
MCH ([…], time 14 day): 21.1 pg
MCHC ([…], time 14 day): 34.8%
MCV ([…], time 14 day): 60.7 fL
Mono ([…], time 14 day): 4.2%
Neu ([…], time 14 day): 17%
PT ([…], time 14 day): 14 s
Plat ([…], time 14 day): 116.4 x10_4/uL
RBC ([…], time 14 day): 664 x10_4/ul
Ret ([…], time 14 day): 4.5%
WBC ([…], time 14 day): 86.5 x10_2/uL
APTT ([…], time 28 day): 19.2 s
Bas ([…], time 28 day): 0.2%
Eos ([…], time 28 day): 0.8%
Fbg ([…], time 28 day): 288.6 mg/dL
Hb ([…], time 28 day): 15.4 g/dL
Ht ([…], time 28 day): 43.1%
